Reference: patent US9139581B2 (PORTOLA PHARMACEUTICALS, INC., priority 2008, dated 2015)

Molecular target: T1, full length active recombinant SYK enzyme (Homo sapiens, UniProt P43405)
T1 construct: full length active recombinant SYK enzyme (Millipore, Calif.); purchased Millipore
Test: Inhibition of Syk tyrosine phosphorylation activity (LANCE TR-FRET)
Type: biochemical
Conditions: Table 3; 1 nM SYK, 100 μM ATP; read-out: Syk IC50 code
How it was run: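 The reaction is quenched with buffer holding Eu-anti-phosphotyrosine and streptavidin-APC, and detection runs 1 hr at room temperature. TR-FRET is read and IC50s come from non-linear regression.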

SMILES	IC50 [nM]
NCCOCCNc1nc(Nc2ccc(N3CCC[C@H]3C(N)=O)cc2)nc2[nH]ccc12 [Example 94, (S)-1-(4-(4-(2-(2-aminoethoxy)ethylamino)-7H-pyrrolo[2,3-d]pyrimidin-2-ylamino)phenyl)pyrrolidine-2-carboxamide]	100 to 1000
c1cc(-c2c[nH]c3nc(Nc4ccc5cn[nH]c5c4)nc(NC4CC4)c23)ccn1 [Example 43, N4-cyclopropyl-N2-(1H-indazol-6-yl)-5-(pyridin-4-yl)-7H-pyrrolo[2,3-d]pyrimidine-2,4-diamine]	100 to 1000
CC(=O)N1CCN(c2ccc(Nc3ncc(F)c(N4CCC(NC(=O)OCc5ccccc5)CC4)n3)cc2)CC1 [Example 127, Benzyl 1-(2-(4-(4-acetylpiperazin-1-yl)phenylamino)-5-fluoropyrimidin-4-yl)piperidin-4-ylcarbamate]	> 1000
CS(=O)(=O)Cc1cccc(Nc2nc(NC3CCC3)c3cc[nH]c3n2)c1 [Example 77]	100 to 1000
Nc1nc(Nc2ccc(C(=O)O)cc2)nc2[nH]cc(-c3ccncc3)c12 [Example 102, 4-(4-amino-5-(pyridin-4-yl)-7H-pyrrolo[2,3-d]pyrimidin-2-ylamino)benzoic acid]	> 1000
CC(=O)N1CCN(c2ccc(Nc3nc(N[C@@H](C)CO)c4cc[nH]c4n3)cc2)CC1 [Example 99A, (S)-1-(4-(4-(4-(1-hydroxypropan-2-ylamino)-7H-pyrrolo[2,3-d]pyrimidin-2-ylamino)phenyl)piperazin-1-yl)ethanone]	100 to 1000
CC(=O)N1CCN(c2ccc(Nc3ncc(F)c(N4CCC(NC(N)=O)CC4)n3)cc2)CC1 [Example 129, 1-(1-(2-(4-(4-acetylpiperazin-1-yl)phenylamino)-5-fluoropyrimidin-4-yl)piperidin-4-yl)urea]	> 1000
CN(C(=O)C1CC1)c1ccc(Nc2nc(NC3CC3)c3cc[nH]c3n2)cc1 [Example 81, N-(4-(4-(cyclopropylamino)-7H-pyrrolo[2,3-d]pyrimidin-2-ylamino)phenyl)-N-methylcyclopropanecarboxamide]	100 to 1000
CN(C)CCCNC(=O)c1ccc(Nc2nc(NC3CCC3)c3cc[nH]c3n2)cc1 [Example 85]	100 to 1000
NCCOCCNc1nc(Nc2ccc3cn[nH]c3c2)nc2[nH]ccc12 [Example 92, N^4-(2-2-(aminoethoxy)ethyl)-N^2-(1H-indazol-6-ylamino)-7H-pyrrolo[2,3-d]pyrimidine-2,4-diamine]	10 to 100
c1cc2c(NC3CCNCC3)nc(Nc3ccc4cn[nH]c4c3)nc2[nH]1 [Example 58, N2-(1H-indazol-6-yl)-N4-(piperidin-4-yl)-7H-pyrrolo[2,3-d]pyrimidine-2,4-diamine]	100 to 1000
CC(=O)N1CCN(c2ccc(Nc3ncc(F)c(N4CCC(CO)CC4)n3)cc2)CC1 [Example 38, 1-(4-(4-(5-fluoro-4-(4-(hydroxymethyl)piperidin-1-yl)pyrimidin-2-ylamino)phenyl)piperazin-1-yl)ethanone]	> 1000
C[C@@H](CO)Nc1nc(Nc2ccc(N3CCNCC3)cc2)nc2[nH]ccc12 [Example 99B, (S)-2-(2-(4-(piperazin-1-yl)phenylamino)-7H-pyrrolo[2,3-d]pyrimidin-4-ylamino)propan-1-ol]	100 to 1000

Same assay, conditions: Table 4; 1 nM SYK, 100 μM ATP; read-out: syk IC50

SMILES	IC50 [nM]
O[C@H]1CCN(c2nc(Nc3ccc(N4CCNCC4)cc3)nc3[nH]ccc23)C1 [Example 12, (S)-1-(2-(4-(piperazin-1-yl)phenylamino)-7H-pyrrolo[2,3-d]pyrimidin-4-yl)pyrrolidin-3-ol]	> 1000
CC(=O)N1CCN(c2ccc(Nc3ncc(C(N)=O)c(N4CCC(CN)CC4)n3)cc2)CC1 [Example 25, 2-(4-(4-acetylpiperazin-1-yl)phenylamino)-4-(4-(aminomethyl)piperidin-1-yl)pyrimidine-5-carboxamide]	> 1000
COc1cc(Nc2ncc(F)c(N3CCC(CN)CC3)n2)cc(OC)c1OC [Example 17, 4-(4-(aminomethyl)piperidin-1-yl)-5-fluoro-N-(3,4,5-trimethoxyphenyl)pyrimidin-2-amine]	100 to 1000
